# Laboratory results published in BindingDB's records for PubMed 7853174 (Merck Research Laboratories, 1995).
# pKi: −log10 of the molar value.
# Biological target: T1, Type-2 angiotensin II receptor (Rattus norvegicus, UniProt P35351)
# T1 sequence (P35351 whole entry): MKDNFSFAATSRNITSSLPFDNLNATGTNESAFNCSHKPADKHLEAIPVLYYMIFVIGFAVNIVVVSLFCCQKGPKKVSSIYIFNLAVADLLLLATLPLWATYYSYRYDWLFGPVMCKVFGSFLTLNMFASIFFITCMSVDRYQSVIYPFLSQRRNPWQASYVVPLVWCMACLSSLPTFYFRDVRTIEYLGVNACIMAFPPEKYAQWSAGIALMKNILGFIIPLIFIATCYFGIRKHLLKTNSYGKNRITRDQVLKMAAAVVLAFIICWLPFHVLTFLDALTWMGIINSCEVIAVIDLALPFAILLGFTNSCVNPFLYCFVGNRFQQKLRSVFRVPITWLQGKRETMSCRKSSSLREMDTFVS
smiles,measurement,value
CCCc1nc(C(F)(F)C(F)(F)F)c(C(=O)O)n1Cc1ccc(-c2ccccc2-c2nnn[nH]2)cc1 [CAS_124750-95-4],pKi,5.24
